The record followed here is patent publication US8299065B2, “Antibacterial condensed thiazoles” (Biota Europe Ltd., priority 2007, dated 2012).

Data set [1] concerns Streptococcus mutans ATCC 35668. The experiment in a line: MIC testing, various bacteria. Type of data set: cell-based. The conditions noted are these: ATCC35668. The protocol:
(§1) Minimum Inhibitory Concentration (MIC) Testing
(§2) Compounds of this invention were tested for antimicrobial activity by susceptibility testing in liquid or on solid media. MICs for compounds against each strain were determined by the broth microdilution or agar dilution method according to the guidelines of the Clinical Laboratories and Standards Institute, formerly the National Committee for Clinical Laboratory Standards (Clinical Laboratories and Standards Institute. Methods for Dilution Antimicrobial Susceptibility Tests for Bacteria That Grow Aerobically; Approved Standard—Seventh Edition. Document M7-A7. CLSI, Wayne, Pa., 2006; Clinical Laboratories and Standards Institute. Methods for Antimicrobial Susceptibility Testing of Anaerobic Bacteria; Approved Standard—Sixth Edition. Document M11-A6. CLSI, Wayne, Pa., 2004).
(§3) Some of the Example compounds were also tested for activity against other bacterial species.

Data set [2] concerns Enterococcus faecalis (VRE) ATCC 51299. Description: MIC testing, various bacteria. Type of data set: cell-based. Here is the method: as §1, §2, §3
For data set [3], the system named is Haemophilus influenzae ATCC 49247. Description: MIC testing, various bacteria. Type of data set: cell-based. The conditions noted are these: ATCC49247. Here is the method: as §1, §2, §3
The subject of data set [4] is Streptococcus pneumoniae ATCC 49619. Description: MIC testing, various bacteria. The settings on record: ATCC49619. Type of data set: cell-based. Here is the method: as §1, §2, §3
For data set [5], the system named is Streptococcus agalactiae ATCC 13813. The experiment in a line: MIC testing, various bacteria. Type of data set: cell-based. The conditions noted are these: ATCC13813. Here is the method: as §1, §2, §3
In data set [6] the test system is Streptococcus pyogenes ATCC 51339. Description: MIC testing, various bacteria. Type of data set: cell-based. The settings on record: ATCC51339. Here is the method: as §1, §2, §3
Data set [7] has as its system Enterococcus faecium (VRE) ATCC 700221. The experiment in a line: MIC testing, various bacteria. Type of data set: cell-based. Here is the method: as §1, §2, §3
Data set [8] concerns Staphylococcus epidermidis ATCC 12228. Description: MIC testing, various bacteria. Type of data set: cell-based. The settings on record: ATCC12228. The protocol: as §1, §2, §3
The subject of data set [9] is Staphylococcus haemolyticus ATCC 29970. Description: MIC testing, various bacteria. Type of data set: cell-based. The settings on record: ATCC29970. Here is the method:
as §1, §2, §3

Data set [10] relates to Moraxella catarrhalis ATCC 25240. Description: MIC testing, various bacteria. Type of data set: cell-based. The settings on record: ATCC25240. The protocol: as §1, §2, §3
Data set [11] deals with Staphylococcus aureus ATCC 29213. The experiment in a line: MIC testing, various bacteria. The settings on record: ATCC29213. Type of data set: cell-based. Here is the method:
as §1, §2, §3

Data set [12] has as its system Enterococcus faecalis ATCC 29212. The experiment in a line: MIC testing against Enterococcus faecalis ATCC 29212. The conditions noted are these: for MIC: ATCC29212, read-out: MICs against Enterococcus faecalis, Activity. Type of data set: cell-based. Here is the method:
as §2, with “Minimum Inhibitory Concentration (MIC) Testing Compounds” for “Compounds”

Data set [13] deals with Staphylococus aureus clinical isolates. The experiment in a line: MIC testing, clinical isolates. Type of data set: cell-based. The conditions noted are these: 10 clinical isolates. Here is the method:
as §2, with “Minimum Inhibitory Concentration (MIC) Testing Compounds” for “Compounds”, “2004). Some of the Example compounds were also tested for activity against clinical isolates of various bacterial species.” for “2004).”

Data set [14] has as its system Staphylococcus epidermidis clinical isolates. The experiment in a line: MIC testing, clinical isolates. Type of data set: cell-based. The conditions noted are these: 10 clinical isolates. Here is the method: as §2, with “Minimum Inhibitory Concentration (MIC) Testing Compounds” for “Compounds”, “2004). Some of the Example compounds were also tested for activity against clinical isolates of various bacterial species.” for “2004).”

In data set [15] the test system is Enterococcus faecalis clinical isolates. The experiment in a line: MIC testing, clinical isolates. Type of data set: cell-based. The settings on record: 10 clinical isolates. Here is the method:
as §2, with “Minimum Inhibitory Concentration (MIC) Testing Compounds” for “Compounds”, “2004). Some of the Example compounds were also tested for activity against clinical isolates of various bacterial species.” for “2004).”

Data set [16] deals with Streptococcus pyogenes clinical isolates. Description: MIC testing, clinical isolates. Type of data set: cell-based. The conditions noted are these: 10 clinical isolates. The protocol: as §2, with “Minimum Inhibitory Concentration (MIC) Testing Compounds” for “Compounds”, “2004). Some of the Example compounds were also tested for activity against clinical isolates of various bacterial species.” for “2004).”

Data set [17] deals with Propionibacterium acnes clinical isolates. Description: MIC testing, clinical isolates. Type of data set: cell-based. The conditions noted are these: 5 clinical isolates. The protocol: as §2, with “Minimum Inhibitory Concentration (MIC) Testing Compounds” for “Compounds”, “2004). Some of the Example compounds were also tested for activity against clinical isolates of various bacterial species.” for “2004).”

Data set [18] relates to Streptococcus pneumoniae clinical isolates. Description: MIC testing, clinical isolates. Type of data set: cell-based. The conditions noted are these: 10 clinical isolates. The protocol: as §2, with “Minimum Inhibitory Concentration (MIC) Testing Compounds” for “Compounds”, “2004). Some of the Example compounds were also tested for activity against clinical isolates of various bacterial species.” for “2004).”

Data set [19] relates to Enterococcus faecium clinical isolates. Description: MIC testing, clinical isolates. Type of data set: cell-based. The settings on record: 10 clinical isolates. The protocol: as §2, with “Minimum Inhibitory Concentration (MIC) Testing Compounds” for “Compounds”, “2004). Some of the Example compounds were also tested for activity against clinical isolates of various bacterial species.” for “2004).”

Values after ≈ are worked out from the molar mass of the structure shown.

In the case of `CCNC(=O)Nc1nc2cc(-c3ccn(C)c(=O)c3)ccc2s1` [Example 3, 1-Ethyl-3-(5-(1-methyl-2-oxo-1,2-dihydro-pyridin-4-yl)-benzothiazol-2-yl)urea], the MIC in data set [1] was 0.25 to 1 µg/mL (≈ 0.761 to 3.05 µM); in data set [2], 2 to 16 µg/mL (≈ 6.09 to 48.7 µM); in data set [3], 2 to 16 µg/mL (≈ 6.09 to 48.7 µM); in data set [4], < 0.25 µg/mL; in data set [5], 0.25 to 1 µg/mL (≈ 0.761 to 3.05 µM); in data set [6] it was 0.25 to 1 µg/mL (≈ 0.761 to 3.05 µM). The MIC is 2 to 16 µg/mL (≈ 6.09 to 48.7 µM) in data set [7]; 0.25 to 1 µg/mL (≈ 0.761 to 3.05 µM) in data set [8]; 0.25 to 1 µg/mL (≈ 0.761 to 3.05 µM) in [9]; 0.25 to 1 µg/mL (≈ 0.761 to 3.05 µM) in data set [10]; 0.25 to 1 µg/mL (≈ 0.761 to 3.05 µM) in data set [11]; 0.25 to 1 µg/mL (≈ 0.761 to 3.05 µM) in data set [12].
Turning to `CCNC(=O)Nc1nc2cc(-c3cccnc3)c(F)cc2s1` [Example 4, 1-Ethyl-3-(6-fluoro-5-pyridin-3-yl-benzothiazol-2-yl)-urea], the melting point (commonly the temperature, or range, at which the solid turns liquid) came to 199.1 °C. Further, the MIC in [12] was in the range of 0.25 to 1 µg/mL (≈ 0.79 to 3.16 µM).
Turning to `CCNC(=O)Nc1nc2cc(-c3cc(C)n(Cc4cccnc4)c(=O)c3)c(F)cc2s1` [Example 49, 1-ethyl-3-(6-fluoro-5-(6-methyl-2-oxo-1-(pyridin-3-ylmethyl)-1,2-dihydropyridin-4-yl)benzo[d]thiazol-2-yl)urea], in [12], the MIC fell in the range of 0.25 to 1 µg/mL (≈ 0.571 to 2.29 µM). Besides, the MIC90 (as a rule, the lowest concentration that inhibits either 90% of growth or 90% of the strains tested, depending on the study) in [13] stood at 0.06 µg/mL (≈ 0.137 µM); in data set [14], 0.03 µg/mL (≈ 0.0686 µM); in [15], 0.25 µg/mL (≈ 0.571 µM); in data set [16] it was 0.25 µg/mL (≈ 0.571 µM); in data set [17] (Cutibacterium acnes), 1 µg/mL (≈ 2.29 µM); in data set [18], 0.015 µg/mL (≈ 0.0343 µM). Further, the MIC90 in [19] came to 0.5 µg/mL (≈ 1.14 µM). Also, the MIC range in data set [13] was 0.03 to 0.12 µg/mL; in [14] it was 8 to 60 ng/mL; in data set [15], 0.06 to 0.5 µg/mL; in data set [16] it was 0.12 to 0.5 µg/mL; in [17], 1 µg/mL (≈ 2.29 µM); in [18] it was 8 to 30 ng/mL. The same compound registered an MIC range in [19] of 0.25 to 0.5 µg/mL.
In the case of `CCNC(=O)Nc1nc2cc(-c3cccnc3)c(C)cc2s1` [Example 73, 1-ethyl-3-(6-methyl-5-(pyridin-3-yl)benzo[d]thiazol-2-yl)urea], the MIC in [12] is 2 to 16 µg/mL (≈ 6.4 to 51.2 µM).
Consider `CCNC(=O)Nc1nc2cc(-c3ccn(C)c(=O)c3)c(C)cc2s1` [Example 74, 1-ethyl-3-(6-methyl-5-(1-methyl-2-oxo-1,2-dihydropyridin-4-yl)benzo[d]thiazol-2-yl)urea], for which, in [12], the MIC is 0.25 to 1 µg/mL (≈ 0.73 to 2.92 µM).
As for `CCNC(=O)Nc1nc2cc(-c3cccnc3)cnc2s1` [Example 75, 1-ethyl-3-(6-(pyridin-3-yl)thiazolo[5,4-b]pyridin-2-yl)urea], in [12], the MIC was 2 to 16 µg/mL (≈ 6.68 to 53.4 µM).
Same read-out and setting: to `CCNC(=O)Nc1nc2cc(-c3ccc(NC(C)=O)nc3)cnc2s1` [Example 76, N-(5-(2-(3-ethylureido)thiazolo[5,4-b]pyridin-6-yl)pyridin-2-yl)acetamide] belongs 2 to 16 µg/mL (≈ 5.61 to 44.9 µM).
Consider `CCNC(=O)Nc1nc2cc(-c3cc(C)oc(=O)c3)cnc2s1` [Example 77, 1-ethyl-3-(6-(6-methyl-2-oxo-2H-pyran-4-yl)thiazolo[5,4-b]pyridin-2-yl)urea], for which, in [12], the MIC lay within 2 to 16 µg/mL (≈ 6.05 to 48.4 µM).
Regarding `CCNC(=O)Nc1nc2cc(-c3cc(C)n(C(C)c4ccc(C)nc4)c(=O)c3)c(F)cc2s1` (stereo not shown) [Example 78, 1-ethyl-3-(6-fluoro-5-{6-methyl-1-[1-(6-methyl-pyridin-3-yl)-ethyl]-2-oxo-1,2-dihydro-pyridin-4-yl}-benzothiazol-2-yl)-urea], the MIC in [12] lay within 0.25 to 1 µg/mL (≈ 0.537 to 2.15 µM).
Consider `CCNC(=O)Nc1nc2cc(-c3ccn(Cc4ncccc4OC)c(=O)c3)c(F)cc2s1` [Example 79, 1-Ethyl-3-{6-fluoro-5-[1-(3-methoxy-pyridin-2-ylmethyl)-2-oxo-1,2-dihydro-pyridin-4-yl]-benzothiazol-2-yl}-urea], for which, in [12], the MIC is < 0.25 µg/mL.
In the case of “tert-butyl 3-((4-(2-(3-ethylureido)-6-fluorobenzo[d]thiazol-5-yl)-5-yl)-2,2′-dioxo-2H-1,4′-bipyridin-1′(2′H)-yl)methyl)piperidine-1-carboxylate [Example 64]”, the “MICs against Enterococcus faecalis, Activity” value in data set [12] was “B (MICs of 0.25-1 μg/ml)”.
